Test results from patent publication US11008301B2, “Piperidinone formyl peptide 2 receptor agonists” (BRISTOL-MYERS SQUIBB COMPANY, priority 2017, dated 2021).
Like-named read-outs stand apart in the source and are kept apart here.

What was measured:
[1] = molecular target: human FPR2 (Homo sapiens (Human), UniProt P25090); test: FPR2 cyclic adenosine monophosphate (cAMP) assay; format: cell-based; settings: CHO cells overexpressing human FPR2
Procedure: (§1) FPR2 and FPR1 Cyclic Adenosine Monophosphate (cAMP) Assays. A mixture of forskolin (5 μM final for FPR2 or 10 μM final for FPR1) and IBMX (200 μM final) were added to 384-well Proxiplates (Perkin-Elmer) pre-dotted with test compounds in DMSO (1% final) at final concentrations in the range of 1.7 nM to 100 μM. Chinese Hamster Ovary cells (CHO) overexpressing human FPR1 or human FPR2 receptors were cultured in F-12 (Ham's) medium supplemented with 10% qualified FBS, 250 μg/ml zeocin and 300 μg/ml hygromycin (Life Technologies). Reactions were initiated by adding 2,000 human FPR2 cells per well or 4,000 human FPR1 cells per well in Dulbecco's PBS (with calcium and magnesium) (Life Technologies) supplemented with 0.1% BSA (Perkin-Elmer). The reaction mixtures were incubated for 30 min at room temperature. The level of intracellular cAMP was determined using the HTRF HiRange cAMP assay reagent kit (Cisbio) according to manufacturer's instruction. Solutions of cryptate conjugated anti-cAMP and d2 flurorophore-labelled cAMP were made in a supplied lysis buffer separately. Upon completion of the reaction, the cells were lysed with equal volume of the d2-cAMP solution and anti-cAMP solution. After a 1-h room temperature incubation, time-resolved fluorescence intensity was measured using the Envision (Perkin-Elmer) at 400 nm excitation and dual emission at 590 nm and 665 nm. A calibration curve was constructed with an external cAMP standard at concentrations ranging from 1 μM to 0.1 pM by plotting the fluorescent intensity ratio from 665 nm emission to the intensity from the 590 nm emission against cAMP concentrations. The potency and activity of a compound to inhibit cAMP production was then determined by fitting to a 4-parametric logistic equation from a plot of cAMP level versus compound concentrations.

[2] = molecular target: human FPR1 (Homo sapiens (Human), UniProt P21462); test: FPR1 cyclic adenosine monophosphate (cAMP) assay; format: cell-based; settings: CHO cells overexpressing human FPR1; forskolin 10 μM; inhibition of cAMP production; read-out: hFPR1 cAMP EC50
human FPR1, sequence (P21462 whole entry): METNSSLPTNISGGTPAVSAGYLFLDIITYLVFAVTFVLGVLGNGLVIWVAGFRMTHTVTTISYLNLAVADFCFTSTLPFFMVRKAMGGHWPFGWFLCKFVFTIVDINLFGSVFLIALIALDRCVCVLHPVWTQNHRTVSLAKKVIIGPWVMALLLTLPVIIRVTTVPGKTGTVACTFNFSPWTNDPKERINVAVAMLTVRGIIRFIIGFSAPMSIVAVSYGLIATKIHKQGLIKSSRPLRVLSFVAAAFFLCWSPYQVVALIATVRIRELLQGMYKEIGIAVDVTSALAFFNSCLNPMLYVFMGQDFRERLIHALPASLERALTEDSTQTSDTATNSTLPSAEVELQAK
Procedure: as §1

[3] = cAMP assay, read-out: hFPR2 agonist activity EC50 (hFPR2 Assay)
[4] = forskolin 5 μM, inhibition of cAMP production, read-out: hFPR2 cAMP2 EC50

human FPR2, sequence (P25090 whole entry): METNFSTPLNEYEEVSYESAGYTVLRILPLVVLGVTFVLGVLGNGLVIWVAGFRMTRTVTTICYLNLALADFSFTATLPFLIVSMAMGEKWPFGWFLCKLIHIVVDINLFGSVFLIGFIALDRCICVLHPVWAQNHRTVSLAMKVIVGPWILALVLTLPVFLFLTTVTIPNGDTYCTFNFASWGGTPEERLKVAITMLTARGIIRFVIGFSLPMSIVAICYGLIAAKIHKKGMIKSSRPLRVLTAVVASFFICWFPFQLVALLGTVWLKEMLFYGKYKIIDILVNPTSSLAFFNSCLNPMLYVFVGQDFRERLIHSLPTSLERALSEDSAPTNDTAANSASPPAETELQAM

Compound	EC50 [1, 3]	EC50 [1, 4]	EC50 [2]
O=C(Nc1ccc(C(F)(F)F)cc1)N[C@@H]1CCCN(c2ccc(N3CCCCC3=O)cc2)C1=O [Example 4]	0.01 to 0.1 µM	0.028 µM	0.41 µM
O=C(Nc1ccc(C(F)(F)F)cc1)N[C@H]1CCCN(c2ccc(N3CC4(COC4)C3)cc2)C1=O [Example 9]	0.1 to 1 µM	0.54 µM	1.5 µM
O=C(Nc1ccc(C(F)(F)F)cn1)N[C@@H]1CCCN(c2ccc(N3CC4(COC4)C3)cc2)C1=O [Example 12]	0.1 to 1 µM	0.38 µM	5 µM
COCC1CCCCN1c1ccc(N2CCC[C@@H](NC(=O)Nc3ccc(C(F)(F)F)cc3)C2=O)cc1 (stereo partly shown) [Example 14]		0.0021 µM	0.036 µM
COCC1CCCCN1c1ccc(N2CCC[C@@H](NC(=O)Nc3ccc(C(F)(F)F)nc3)C2=O)cc1 (stereo partly shown) [Example 15]		0.032 µM	0.66 µM
COC[C@@H]1CCCN1c1ccc(N2CCC[C@@H](NC(=O)Nc3ccc(Cl)cc3)C2=O)cc1 [Example 26]	≤ 0.01 µM	0.0037 µM	0.012 µM
CS(=O)(=O)N1CCN(c2ccc(N3CCC[C@@H](NC(=O)Nc4ccc(C(F)(F)F)cc4)C3=O)cc2)CC1 [Example 34]		0.4 µM	2.2 µM
O=C(Nc1ccc(C(F)(F)F)cc1)N[C@@H]1CCCN(c2ccc(N3CCCCC3)cc2)C1=O [Example 45]		0.003 µM	0.011 µM
O=C(Nc1ccc(C(F)(F)F)nc1)N[C@@H]1CCCN(c2ccc(N3CCCCC3=O)cc2F)C1=O [Example 50]		0.33 µM	> 10 µM
O=C(Nc1ccc(C(F)(F)F)cc1)N[C@@H]1CCCN(c2ccc(N3CCOCC3)nc2)C1=O [Example 54, (R)-1-(1-(6-Morpholinopyridin-3-yl)-2-oxopiperidin-3-yl)-3-(4-(trifluoromethyl)phenyl)urea]		0.031 µM	0.92 µM
O=C(Nc1ccc(C(F)(F)F)cc1)N[C@@H]1CCCN(c2ccc(N3CCCC(CO)C3)nc2)C1=O (stereo partly shown) [Example 56]		0.0018 µM	0.045 µM
CC(=O)N[C@@H]1CCN(c2ccc(N3CCC[C@@H](NC(=O)Nc4ccc(C(F)(F)F)cc4)C3=O)cc2)C1 [Example 69]		0.014 µM	0.19 µM
O=C(Nc1ccc(C(F)(F)F)cc1)N[C@@H]1CCCN(c2ccc(N3CCCC(F)(F)C3)cc2)C1=O [Example 70]		0.0024 µM	0.067 µM
CN(C)C1CCCN(c2ccc(N3CCC[C@@H](NC(=O)Nc4ccc(C(F)(F)F)cc4)C3=O)cc2)C1 (stereo partly shown) [Example 77]		0.00018 µM	1.1 µM
CN(C)C1CCN(c2ccc(N3CCC[C@@H](NC(=O)Nc4ccc(Cl)cc4F)C3=O)c(F)c2)C1 (stereo partly shown) [Example 81]		0.00031 µM	1.7 µM
CN(C)C1CCN(c2ccc(N3CCC[C@@H](NC(=O)Nc4ccc(Cl)cc4)C3=O)cc2F)C1 (stereo partly shown) [Example 83]		0.00039 µM	1.1 µM
CN(C)C(=O)C1CCN(c2ccc(N3CCC[C@@H](NC(=O)Nc4ccc(Cl)cc4F)C3=O)cc2)C1 (stereo partly shown) [Example 86]	≤ 0.01 µM		
CS(=O)(=O)C1CCN(c2ccc(N3CCC[C@@H](NC(=O)Nc4ccc(Cl)cc4)C3=O)c(F)c2F)C1 (stereo partly shown) [Example 87]	≤ 0.01 µM		
O=C(Nc1ccc(Cl)cc1F)N[C@@H]1CCCN(c2ccc(N3CC[C@@H](F)C3)c(F)c2F)C1=O [Example 88]	≤ 0.01 µM		

Compound	EC50 [1, 3]	EC50 [1, 4]	EC50 [2]
CS(=O)(=O)C1CCN(c2ccc(N3CCC[C@@H](NC(=O)Nc4ccc(Cl)cc4F)C3=O)c(F)c2F)C1 (stereo partly shown) [Example 89]	≤ 0.01 µM		
CS(=O)(=O)C1CCN(c2cc(F)c(N3CCC[C@@H](NC(=O)Nc4ccc(Cl)cc4F)C3=O)c(F)c2)C1 (stereo partly shown) [Example 90]	≤ 0.01 µM		
CC1(O)CCCN(c2ccc(N3CCC[C@@H](NC(=O)Nc4ccc(Cl)cc4)C3=O)cc2)C1 (stereo partly shown) [Example 93]	≤ 0.01 µM		
CC1(O)CCN(c2ccc(N3CCC[C@@H](NC(=O)Nc4ccc(Cl)cc4)C3=O)cc2)C1 (stereo partly shown) [Example 94]	≤ 0.01 µM		
O=C(Nc1ccc(Cl)cc1)N[C@@H]1CCCN(c2ccc(N3C[C@H]4COC[C@H]4C3)cc2)C1=O [Example 95]		0.0025 µM	0.076 µM
O=C(Nc1ccc(Cl)cc1)N[C@@H]1CCCN(c2ccc(N3CCC4(CC4)C3)cc2)C1=O [Example 96]	≤ 0.01 µM		
O=C(Nc1ccc(Cl)cc1)N[C@@H]1CCCN(c2ccc(N3CCC(C4CC4)C3)cc2)C1=O (stereo partly shown) [Example 97]	≤ 0.01 µM		
O=C(Nc1ccc(Cl)cc1)N[C@@H]1CCCN(c2ccc(N3C[C@@H](F)[C@@H](F)C3)cc2)C1=O [Example 98]	≤ 0.01 µM		
CC1(F)CCN(c2ccc(N3CCC[C@@H](NC(=O)Nc4ccc(Cl)cc4)C3=O)cc2)CC1 [Example 99]	≤ 0.01 µM		
O=C(Nc1ccc(Cl)cc1)N[C@@H]1CCCN(c2ccc(N3CCC(O)(C(F)(F)F)CC3)cc2)C1=O [Example 100]	≤ 0.01 µM		
O=C(Nc1ccc(Cl)cc1)N[C@@H]1CCCN(c2ccc(N3CCC4(CCCO4)CC3)cc2)C1=O [Example 101]	≤ 0.01 µM		
O=C(Nc1ccc(Cl)cc1)N[C@@H]1CCCN(c2ccc(N3CCC4(CCCO4)CC3)cc2)C1=O [Example 102]		0.015 µM	0.061 µM
CN(C)C1CCN(c2ccc(N3CCC[C@@H](NC(=O)Nc4ccc(Cl)cc4)C3=O)cn2)C1 (stereo partly shown) [Example 103]	≤ 0.01 µM		
O=C(Nc1ccc(C(F)(F)F)cc1)N[C@@H]1CCCN(c2ccc(N3C[C@H]4CC[C@@H](C3)O4)nc2)C1=O [Example 104]		0.018 µM	0.63 µM
O=C(Nc1ccc(Cl)cc1F)N[C@@H]1CCCN(c2ccc(N3CC[C@@H](F)C3)nc2)C1=O [Example 105]	≤ 0.01 µM		
O=C(Nc1ccc(Cl)cc1F)N[C@@H]1CCCN(c2ccc(N3CC[C@@H](O)C3)nc2)C1=O [Example 106]	≤ 0.01 µM		
O=C(Nc1ccc(Cl)cc1)N[C@@H]1CCCN(c2ccc(N3C[C@H]4CC[C@@H](C3)O4)cc2F)C1=O [Example 107]		0.0026 µM	0.33 µM
CS(=O)(=O)C1CCN(c2ccc(N3CCC[C@@H](NC(=O)Nc4ccc(C(F)(F)F)cc4)C3=O)cc2)C1 (stereo partly shown) [Example 108]	≤ 0.01 µM		
